Experimental data taken from ChEMBL document CHEMBL1139430, “Synthesis of a natural product-inspired eight-membered ring lactam library via ring-closing metathesis” (Bioorg Med Chem Lett, 2008).

Legend:
L1210 = assay: Antiproliferative activity against mouse L1210 cells at day 4 by MTS/PMS assay; format: functional, cell-based; conditions: L1210, 96 h
HL-60 [1] = assay: Antiproliferative activity against human HL60 cells at 62.5 to 156.25 uM at day 4 by MTS/PMS assay; format: functional
HL-60 [2] = assay: Antiproliferative activity against human HL60 cells at day 4 by MTS/PMS assay; format: functional, cell-based; conditions: HL-60, 96 h
[3] = Antiproliferative activity against mouse Pan02 cells at day 4 by MTS/PMS assay; format: functional, cell-based; conditions: Pan02, 96 h

SMILES: COc1ccc([C@H]2/C=C\C[C@H](NS(=O)(=O)c3cccc4cccnc34)CC(=O)N2Cc2ccc(F)cc2)cc1
- IC50 (L1210): 15.4 µM
- inhibition (INH) (HL-60 [1]): <50%

SMILES: COc1ccc([C@H]2/C=C\C[C@H](NC(=O)C3CCCC3)CC(=O)N2Cc2ccc(F)cc2)cc1 (relative stereo)
- IC50 (L1210): 40.1 µM
- inhibition (INH) (HL-60 [1]): <50%

SMILES: COc1ccc([C@H]2/C=C\C[C@H](NC(=O)c3ccccc3)CC(=O)N2Cc2ccc(F)cc2)cc1 (relative stereo)
- IC50 (L1210): 27.1 µM
- IC50 (HL-60 [2]): 54.7 µM
- IC50 [3]: 40.6 µM

SMILES: COc1ccc([C@H]2/C=C\C[C@H](NS(=O)(=O)c3ccc4ccccc4c3)CC(=O)N2Cc2ccc(F)cc2)cc1 (relative stereo)
- IC50 (L1210): 8.5 µM
- inhibition (INH) (HL-60 [1]): <50%

SMILES: COc1ccc(C(=O)N[C@H]2C/C=C\[C@H](c3ccc(OC)cc3)N(Cc3ccc(F)cc3)C(=O)C2)cc1 (relative stereo)
- IC50 (L1210): 25.2 µM
- IC50 (HL-60 [2]): 40.1 µM
- IC50 [3]: 34.9 µM

SMILES: CCCCS(=O)(=O)N[C@H]1C/C=C\[C@H](c2ccc(OC)cc2)N(Cc2ccc(F)cc2)C(=O)C1 (relative stereo)
- IC50 (L1210): 37.9 µM
- inhibition (INH) (HL-60 [1]): <50%

SMILES: COc1ccc([C@H]2/C=C\C[C@H](NS(=O)(=O)c3ccc(C)cc3)CC(=O)N2Cc2ccc(F)cc2)cc1 (relative stereo)
- IC50 (L1210): 11 µM
- inhibition (INH) (HL-60 [1]): <50%
